The text below walks through data of patent publication US20260258064A1 (SIRONAX LTD., priority 2023, published 2026).

pIC50: −log10 of the molar value. A value given as a limit tells only on which side of the number the result lay.

This experiment concerns the target T1, SARM1 (50-724) (Homo sapiens, UniProt Q6SZW1).
T1 construct: Purified SARM1 (50-724) with a final concentration of 2 nM was pre-incubated with a test compound
T1 sequence (Q6SZW1 50-724): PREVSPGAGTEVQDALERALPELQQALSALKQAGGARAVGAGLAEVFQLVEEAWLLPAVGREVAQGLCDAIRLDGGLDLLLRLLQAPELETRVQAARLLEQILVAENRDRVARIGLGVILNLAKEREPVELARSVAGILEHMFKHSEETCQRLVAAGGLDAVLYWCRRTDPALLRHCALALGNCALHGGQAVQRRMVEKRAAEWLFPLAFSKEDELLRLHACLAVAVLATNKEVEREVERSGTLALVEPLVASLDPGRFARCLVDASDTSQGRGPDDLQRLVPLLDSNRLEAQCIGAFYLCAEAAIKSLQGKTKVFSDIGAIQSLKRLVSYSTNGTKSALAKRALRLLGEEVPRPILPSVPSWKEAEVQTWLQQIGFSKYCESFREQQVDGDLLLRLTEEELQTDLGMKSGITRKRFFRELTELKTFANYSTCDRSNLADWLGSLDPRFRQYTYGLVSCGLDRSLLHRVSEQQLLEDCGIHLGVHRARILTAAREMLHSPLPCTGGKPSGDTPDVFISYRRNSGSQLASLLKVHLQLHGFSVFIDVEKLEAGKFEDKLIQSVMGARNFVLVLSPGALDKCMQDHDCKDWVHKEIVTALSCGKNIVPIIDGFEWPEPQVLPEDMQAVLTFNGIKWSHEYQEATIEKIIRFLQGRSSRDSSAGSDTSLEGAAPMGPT
Nature of the experiment: SARM1 (50-724) enzymatic assay (LC-MS/MS). In kind it is biochemical. Particulars: Purified SARM1 (50-724) 2 nM, NMN as activator, NAD+ as substrate, 1 h at room temperature, read-out: IC50 (SARM1 inhibitory activity). Summed up: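 Reaction buffer was Dulbecco's PBS. Compound and 2 nM human SARM1 (50-724) were pre-incubated 15 min at room temperature, then […] NAD^+ and 200 µM NMN activator were added for 1 h at room temperature. Acetonitrile (70%) stop, LC-MS/MS read-out, IC50 values.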
By pIC50 is commonly meant −log10 of the IC50, conventionally taken in molar units. Take `Fc1ccc(-n2cnnc2-c2nc3cc(C(F)(F)F)cnc3[nH]2)c(Cl)c1F` [Compound 170, 2-(4-(2-chloro-3,4-difluorophenyl)-4H-1,2,4-triazol-3-yl)-6-(trifluoromethyl)-3H-imidazo[4,5-b]pyridine]: the pIC50 is at least 7.00.

Take `NC(=O)C1(c2ccc3[nH]c(-c4nncn4-c4ccc(F)c(F)c4Cl)nc3c2)CC1` [Compound 171, 1-(2-(4-(2-chloro-3,4-difluorophenyl)-4H-1,2,4-triazol-3-yl)-1H-benzo[d]imidazol-5-yl)cyclopropane-1-carboxamide]: the pIC50 is at least 7.00.

`CCN(C)C(=O)c1ccc2[nH]c(-c3nncn3-c3ccc(F)c(F)c3Cl)nc2c1` [Compound 172, 2-(4-(2-chloro-3,4-difluorophenyl)-4H-1,2,4-triazol-3-yl)-N-ethyl-N-methyl-1H-benzo[d]imidazole-5-carboxamide]: the pIC50 is below 6.00.

`Cn1cc(Cl)c(-n2cnnc2-c2nc3cc(C(F)(F)F)ccc3[nH]2)cc1=O` [Compound 173, 5-chloro-1-methyl-4-(3-(5-(trifluoromethyl)-1H-benzo[d]imidazol-2-yl)-4H-1,2,4-triazol-4-yl)pyridin-2(1H)-one]: the pIC50 was 6.30 to 7.00.

`NC(=O)c1cc(Cl)c(Cl)c(-n2cnnc2-c2nc3cc(C(F)(F)F)ccc3[nH]2)c1` [Compound 174, 3,4-dichloro-5-(3-(5-(trifluoromethyl)-1H-benzo[d]imidazol-2-yl)-4H-1,2,4-triazol-4-yl)benzamide]: the pIC50 is at least 7.00.

Take `CNc1ccc(Cl)c(-n2cnnc2-c2nc3cc(C(F)(F)F)ccc3[nH]2)n1` [Compound 175, 5-Chloro-N-methyl-6-(3-(5-(trifluoromethyl)-1H-benzo[d]imidazol-2-yl)-4H-1,2,4-triazol-4-yl)pyridin-2-amine]: the pIC50 was at least 7.00.

Regarding `Cc1cnc2[nH]c(-c3nncn3-c3cccc(F)c3Cl)nc2n1` [Compound 176, 2-(4-(2-chloro-3-fluorophenyl)-4H-1,2,4-triazol-3-yl)-6-methyl-1H-imidazo[4,5-b]pyrazine], the pIC50 was below 6.00.

`FC(F)(F)Oc1cccnc1-n1cnnc1-c1nc2cc(C(F)(F)F)ccc2[nH]1` [Compound 177]: the pIC50 is at least 7.00.

For `CC1(c2ccc3[nH]c(-c4nncn4-c4cccc(F)c4Cl)nc3c2)CS(=O)(=O)C1` [Compound 178, 3-(2-(4-(2-chloro-3-fluorophenyl)-4H-1,2,4-triazol-3-yl)-1H-benzo[d]imidazol-5-yl)-3-methylthietane 1,1-dioxide], the pIC50 was 6.30 to 7.00.

As to `Cn1cc(-c2cccc(F)c2Cl)c(-c2nc3cc(CC(N)=O)ccc3[nH]2)cc1=O` [Compound 179, 2-(2-(5-(2-chloro-3-fluorophenyl)-1-methyl-2-oxo-1,2-dihydropyridin-4-yl)-1H-benzo[d]imidazol-5-yl)acetamide], the pIC50 is 6.30 to 7.00.

Take `N#CC1(c2ccc3[nH]c(-c4nncn4-c4cccc(F)c4Cl)nc3c2)COC1` [Compound 180, 3-(2-(4-(2-chloro-3-fluorophenyl)-4H-1,2,4-triazol-3-yl)-1H-benzo[d]imidazol-5-yl)oxetane-3-carbonitrile]: the pIC50 was at least 7.00.

For the compound `CS(=O)(=O)Cc1nnc(-c2nc3cc(C(F)(F)F)cc(F)c3[nH]2)n1-c1cccc(F)c1Cl` [Compound 182, 2-(4-(2-Chloro-3-fluorophenyl)-5-((methylsulfonyl)methyl)-4H-1,2,4-triazol-3-yl)-7-fluoro-5-(trifluoromethyl)-1H-benzo[d]imidazole], the pIC50 is at least 7.00.

With `CS(=O)(=O)Cc1nnc(-c2nc3cc(C(F)(F)F)cc(F)c3[nH]2)n1-c1cccc(Cl)c1Cl` [Compound 185, 2-(4-(2,3-dichlorophenyl)-5-((methylsulfonyl)methyl)-4H-1,2,4-triazol-3-yl)-4-fluoro-6-(trifluoromethyl)-1H-benzo[d]imidazole], the pIC50 is at least 7.00.

Take `Cn1cc(-c2cccc(Cl)c2Cl)c(-c2nc3cc(Cl)c(Cl)cc3[nH]2)cc1=O` [Compound 188, 4-(5,6-dichloro-1H-benzo[d]imidazol-2-yl)-5-(2,3-dichlorophenyl)-1-methylpyridin-2(1H)-one]: the pIC50 is 6.30 to 7.00.
